From patent US20200354327A1, “COMPOUND HAVING STAT3 INHIBITORY ACTIVITY AND USE THEREOF” (CYTUS H&B CO., LTD., priority 2017, published 2020)

Each molecule was assayed against STAT3 (Homo sapiens, UniProt P40763) (assay: Western blot of the 46 Table 1 compounds in Hodgkin lymphoma cell lines L540 and HDLM-2). Conditions: L540 and HDLM-2.
Assay type: cell-based
Set-up: endogenous in cells; host or cells: L540, HDLM-2, U87-MG, MDA-MB-231, further human glioblastoma and breast cancer lines
Experimental: The human cancer cell lines used in the experiment were U87-MG (human malignant glioblastoma) and MDA-MB-231 (human malignant breast cancer) cell lines, and various kinds of human-derived blood and solid cancer cells including these human cancer cell lines were cultured as previously described (Jung J E, et al. FASEB J. 19, 1296-1298 (2005)). The human Hodgkin lymphoma cancer cell lines L540 and HLDM-2 used in the experiment were obtained from the German Collection of Microorganism and Cell Cultures (DSMZ, Germany) and cultured using RPMI 1640 medium containing 20% FBS in a 5% CO2 incubator at a temperature of 37° C.
Western blot analysis was performed (Jung J E, et al. FASEB J. 19, 1296-1298 (2005)). The cells were washed two times with PBS and suspended in the lysate (50 mM Tris-HCl, pH 7.4, 350 mM NaCl, 1% Triton X-100, 0.5% Nonidet P-40, 10% glycerol, 0.1% SDS, 1 mM EDTA, 1 mM EGTA, 1 mM Na3VO4, 1 mM PMSF, protease and phosphorylation inhibitor) and the cell membrane and nuclear membrane were crushed to lyse the cells. The insoluble protein fraction was removed by centrifugation, and the supernatant was mixed with SDS electrophoresis buffer and electrophoresis (SDS-PAGE) was performed to detect the protein with the desired antibody and to confirm the protein expression level.

Sequence of STAT3 (P40763 whole entry): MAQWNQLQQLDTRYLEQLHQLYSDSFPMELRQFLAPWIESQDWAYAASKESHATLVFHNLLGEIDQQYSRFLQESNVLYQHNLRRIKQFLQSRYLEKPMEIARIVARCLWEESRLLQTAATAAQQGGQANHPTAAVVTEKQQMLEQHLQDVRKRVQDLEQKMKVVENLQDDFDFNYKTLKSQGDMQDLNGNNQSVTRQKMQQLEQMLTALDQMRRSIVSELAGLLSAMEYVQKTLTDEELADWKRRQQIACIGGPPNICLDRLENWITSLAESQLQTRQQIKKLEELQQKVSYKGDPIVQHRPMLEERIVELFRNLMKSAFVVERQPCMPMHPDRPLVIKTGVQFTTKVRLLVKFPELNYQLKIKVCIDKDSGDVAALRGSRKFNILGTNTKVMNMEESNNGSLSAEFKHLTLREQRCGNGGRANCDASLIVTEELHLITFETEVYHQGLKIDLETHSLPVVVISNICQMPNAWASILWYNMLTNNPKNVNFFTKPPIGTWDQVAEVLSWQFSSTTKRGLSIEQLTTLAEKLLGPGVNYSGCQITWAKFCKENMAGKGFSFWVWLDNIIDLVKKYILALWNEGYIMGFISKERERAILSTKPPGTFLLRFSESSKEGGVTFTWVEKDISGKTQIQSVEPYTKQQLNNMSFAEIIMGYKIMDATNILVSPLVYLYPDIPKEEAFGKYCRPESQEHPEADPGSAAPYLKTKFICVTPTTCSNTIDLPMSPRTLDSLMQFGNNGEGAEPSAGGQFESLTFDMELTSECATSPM

SMILES	STAT3 inhibitory efficacy, first screening
Cl.Cl.NCCc1nc2ccccc2c(=O)[nH]1.O [compound 1, 2-(2-aminoethyl)-4(3H)-quinazolinone dihydrochloride hydrate]	judged to exert superior STAT3 inhibitory efficacy
O=S(=O)(NCCc1nc2ccccc2[nH]1)c1ccccc1 [compound 4, N-[2-(lH-benzimidazol-2-yl)ethyl]benzenesulfonamide]	judged to exert superior STAT3 inhibitory efficacy
O=C1NCSC1=Cc1ccccc1O [compound 5, 5-(2-hydroxybenzylidene)-l,3-thiazolidin-4-one]	judged to exert superior STAT3 inhibitory efficacy
O=S(=O)(NCc1nc2ccccc2[nH]1)c1ccccc1 [compound 6, N-(1H-benzimidazol-2-ylmethyl)benzenesulfonamide]	judged to exert superior STAT3 inhibitory efficacy
O=C(O)C1Cc2c([nH]c3ccccc23)C(c2ccc(O)cc2)N1 (stereo not drawn) [compound 8, l-(4-hydroxyphenyl)-2,3,4,9-tetrahydro-lH-beta-carboline-3-carboxylic acid]	judged to exert superior STAT3 inhibitory efficacy
O=C(Nc1nc(O)nc(C=Cc2ccccc2)n1)NS(=O)(=O)c1ccccc1Cl [compound 9, 2-chloro-N-({[4-hydroxy-6-(2-phenylvinyl)-l,3,5-triazin-2-yl]amino]carbonyl)benzenesulfonamide]	judged to exert superior STAT3 inhibitory efficacy
O=C(O)c1cccc(NS(=O)(=O)c2cccc(C(F)(F)F)c2)c1 [compound 11, 3-({[3-(trifluoromethyl)phenyl]sulfonyl}amino)benzoic acid]	judged to exert superior STAT3 inhibitory efficacy
O=S(=O)(NCc1nc2ccccc2[nH]1)c1ccc(Cl)cc1 [compound 14, N-(1H-benzimidazol-2-ylmethyl)-4-chlorobenzenesulfonamide]	judged to exert superior STAT3 inhibitory efficacy
CC1CN(Cc2nc3c([nH]2)c(=O)[nH]c(=O)n3C)CC(C)O1 (centres unmarked) [compound 16, 8-[(2,6-dimethyl-4-morpholinyl)methyl]-3-methyl-3,7-dihydro-lH-purine-2,6-dione]	judged to exert superior STAT3 inhibitory efficacy
CC(CNCc1nc2ccccc2[nH]1)c1ccccc1 (centres unmarked) [compound 18, (1H-benzimidazol-2-ylmethyl)(2-phenylpropyl)amine]	judged to exert superior STAT3 inhibitory efficacy
CCS(=O)(=O)Nc1cccc(C2=NN(S(C)(=O)=O)C(c3cccc(F)c3)C2)c1 (stereo not drawn) [compound 19, N-{3-[5-(3-fluorophenyl)-l-(methylsulfonyl)-4,5-dihydro-lH-pyrazol-3-yl]phenyl}ethanesulfonamide]	judged to exert superior STAT3 inhibitory efficacy
O=S(=O)(NCc1nc2ccccc2[nH]1)c1ccc(Cl)c(Cl)c1 [compound 20, N-(lH-benzimidazol-2-ylmethyl)-3,4-dichlorobenzenesulfonamide]	judged to exert superior STAT3 inhibitory efficacy
O=C(Nc1ccc(C(=O)N2CCNC2=O)cc1)c1cccs1 [compound 21, N-{4-[(2-oxo-l-imidazolidinyl)carbonyl]phenyl}-2-thiophenecarboxamide]	judged to exert superior STAT3 inhibitory efficacy
O=C(Nc1ccc(C(=O)N2CCNC2=O)cc1)c1ccccc1 [compound 22, N-{4-[(2-oxo-l-imidazolidinyl)carbonyl]phenyl}benzamide]	judged to exert superior STAT3 inhibitory efficacy
O=C(COc1ccc(Cl)cc1S(=O)(=O)NC1CC1)N1CCOCC1 [compound 23, 5-chloro-N-cyclopropyl-2-[2-(4-morpholinyl)-2-oxoethoxy]benzenesulfonamide]	judged to exert superior STAT3 inhibitory efficacy
NC(=O)c1cc(S(=O)(=O)Nc2ccc(O)cc2)cs1 [compound 24, 4-{[(4-hydroxyphenyl)amino]sulfonyl}-2-thiophenecarboxamide]	judged to exert superior STAT3 inhibitory efficacy
O=C1CN(C(=O)C=Cc2ccccc2)CCN1 [compound 27, 4-cinnamoyl-2-piperazinone]	judged to exert superior STAT3 inhibitory efficacy

SMILES	STAT3 inhibitory efficacy, first screening
Cc1ccccc1NC(=O)c1cccc(NS(C)(=O)=O)c1 [compound 28, N-(2-methylphenyl)-3-((methylsulfonyl)amino]benzamide]	judged to exert superior STAT3 inhibitory efficacy
O=C(Nc1ccc(F)cc1)Nc1cccc(C(=O)NCc2ccccc2)c1 [compound 29, N-benzyl-3-({[(4-fluorophenyl)amino]carbonyl}amino)benzamide]	judged to exert superior STAT3 inhibitory efficacy
CC(C)(C)NC(=O)c1cccc(NC(=O)Nc2ccccc2)c1 [compound 30, 3-[(anilinocarbonyl)amino]-N-(tert-butyl)benzamide]	judged to exert superior STAT3 inhibitory efficacy
Cc1ccc(S(=O)(=O)NCCc2nc3ccccc3[nH]2)cc1 [compound 31, N-[2-(1H-benzimidazol-2-yl)ethyl]-4-methylbenzenesulfonamide]	judged to exert superior STAT3 inhibitory efficacy
Cc1ccc(S(=O)(=O)NCc2nc3ccccc3[nH]2)cc1 [compound 32, N-(1H-benzimidazol-2-ylmethyl)-4-methylbenzenesulfonamide]	judged to exert superior STAT3 inhibitory efficacy
CS(=O)(=O)Nc1cccc(C(=O)NCc2ccncc2)c1 [compound 33, 3-[(methylsulfonyl)amino]-N-(4-pyridinylmethyl)benzamide]	judged to exert superior STAT3 inhibitory efficacy
Brc1cc2c(cc1CSc1nc3cccnc3[nH]1)OCO2 [compound 34, 2-{[(6-bromo-l,3-benzodioxol-5-yl)methyl]thio}-3H-imidazo[4,5-b]pyridine]	judged to exert superior STAT3 inhibitory efficacy
O=C(O)[C@@H]1CCCN1S(=O)(=O)c1ccc2[nH]c(=O)c(=O)[nH]c2c1 [compound 35, l-[(2,3-dioxo-l,2,3,4-tetrahydro-6-quinoxalinyl)sulfonyl]proline]	judged to exert superior STAT3 inhibitory efficacy
CCc1ccc(OC)c(S(=O)(=O)Nc2cccc(O)c2)c1 [compound 36, 5-ethyl-N-(3-hydroxyphenyl)-2-methoxybenzenesulfonamide]	judged to exert superior STAT3 inhibitory efficacy
OCCCNc1nc(Nc2cccc(O)c2)nc2ccccc12 [compound 37, 3-({4-[(3-hydroxypropyl)amino]-2-quinazolinyl}amino)phenol]	judged to exert superior STAT3 inhibitory efficacy
O=C(Nc1ccc(Cc2ccc(NC(=O)C(c3ccccc3)c3ccccc3)c(O)c2)cc1O)C(c1ccccc1)c1ccccc1 [compound 38, N,N′-[methylenebis(2-hydroxy-4,1-phenylene)]bis(2,2-diphenylacetamide)]	judged to exert superior STAT3 inhibitory efficacy
COc1ccccc1C(=O)Nc1ccc(C(=O)N2CCNC2=O)cc1 [compound 41, 2-methoxy-N-{4-[(2-oxo-l-imidazolidinyl)carbonyl]phenyl}benzamide]	judged to exert superior STAT3 inhibitory efficacy
Cc1[nH]c2ccc(-c3n[nH]c(=S)n3C)cc2c1C [compound 42, 5-(2,3-dimethyl-lH-indol-5-yl)-4-methyl-2,4-dihydro-3H-l,2,4-triazole-3-thione]	judged to exert superior STAT3 inhibitory efficacy
O=C(Nc1cccnc1)c1cccc(NS(=O)(=O)c2ccccc2)c1 [compound 43, 3-[(phenylsulfonyl)amino]-N-3-pyridinylbenzamide]	judged to exert superior STAT3 inhibitory efficacy
CS(=O)(=O)Nc1cccc(C(=O)Nc2ccccc2C(=O)NCc2cccnc2)c1 [compound 44, 2-({3-[(methylsulfonyl)amino]benzoyl]amino)-N-(3-pyridinylmethyl)benzamide]	judged to exert superior STAT3 inhibitory efficacy
O=C(NCC1CCCO1)C1CC(=O)N(c2ccc(O)cc2)C1 (centres unmarked) [compound 45, 1-(4-hydroxyphenyl)-5-oxo-N-(tetrahydro-2-furanylmethyl)-3-pyrrolidinecarboxamide]	judged to exert superior STAT3 inhibitory efficacy

Same assay, conditions: L540 and HDLM-2, 50 μM

SMILES	STAT3 inhibitory efficacy, secondary screening
OCCCNc1nc(Nc2cccc(O)c2)nc2ccccc12 [compound 37, 3-({4-[(3-hydroxypropyl)amino]-2-quinazolinyl}amino)phenol]	judged to exert superior STAT3 inhibitory efficacy

Same assay, conditions: L540 and HDLM-2, various concentrations

SMILES	phosphorylation of STAT tyrosine 705
OCCCNc1nc(Nc2cccc(O)c2)nc2ccccc12 [compound 37, 3-({4-[(3-hydroxypropyl)amino]-2-quinazolinyl}amino)phenol]	significantly inhibited the phosphorylation of STATdml tyrosine 705 in a concentration-dependent manner
